Results: ChEMBL document CHEMBL4052722, “Virtual screening, synthesis and biological evaluation of DNA intercalating antiviral agents” (Bioorg Med Chem Lett, 2017)

Columns and labels:
Bos taurus = species: Bos taurus; assay: Displacement of ethidium bromide from calf thymus DNA by fluorescence binding assay
[1] = system: Vesicular stomatitis virus; assay: Antiviral activity against Vesicular stomatitis virus at 0.2 to 620 uM after 24 hrs post infection relative to control; format: functional

Row | SMILES | log Ka (Bos taurus) | Activity [1] [%]
1 | O=C(Cn1c2ccccc2c2nc3ccccc3nc21)OCCCN1CCOCC1 | 5.14 | 15
2 | O=C(CCN1CCCCC1)N/N=C1\C(=O)Nc2ccccc21 | 5.92 | 0
3 | CCN(CC)CCCOC(=O)CCCn1c2ccccc2c2nc3ccccc3nc21 | 5.29 | 0
4 | CN1CCN(CCCCn2c3ccccc3c3nc4ccccc4nc32)CC1 | 6.04 | 10
5 | c1ccc2nc3c(nc2c1)c1ccccc1n3CCN1CCCCC1 | 6.01 | 90
6 | CCN(CC)CC(=O)N/N=C1/C(=O)Nc2ccc3ccccc3c21 | 6.3 | 30
7 | O=C(CN1CCCC1)N/N=C1\C(=O)Nc2ccccc21 | 5.58 | –
8 | O=C(CCCN1C(=O)c2cccc3cccc(c23)C1=O)NCCCN1CCOCC1 | 5.07 | 30
9 | CCN(CC)CCN1C(=O)/C(=N\NC(=O)CN2CCN(C)CC2)c2ccccc21 | 5.99 | 0
10 | CCN(CC)CCN1C(=O)/C(=N\NC(=O)CN2CCC(C)CC2)c2ccccc21 | 6.47 | 100
11 | CCN(CC)CCNC(=O)CN1C(=O)c2cccc3cccc(c23)C1=O | 5.54 | –
12 | CCCN(CCC)CCn1c2ccc3ccccc3c2c2nc3ccccc3nc21 | 6.91 | 16
13 | CCN(CC)CCCCCCn1c2ccccc2c2nc3ccccc3nc21 | 5.65 | 75
14 | CCN(CC)CC(=O)N/N=C1\C(=O)Nc2ccccc21 | 5.96 | 80
15 | OCCNCCCCn1c2ccccc2c2nc3ccccc3nc21 | 5.96 | 32
16 | O=C(NCCN1CCOCC1)c1cc2c(ccc3ccccc32)o1 | 4.58 | –
17 | CCN(CC)CCCn1c2ccccc2c2nc3ccccc3nc21 | 6.11 | 30
18 | CN(C)CCCNC(=O)CCN1C(=O)c2cccc3cccc(c23)C1=O | 5.92 | –
19 | O=C(CCCn1c2ccccc2c2nc3ccccc3nc21)NCCNCCO | 5.05 | –
20 | CCN(CC)CCn1c2ccccc2c2nc3ccccc3nc21 | 6.07 | 90
21 | CC1CCN(CCn2c3ccc4ccccc4c3c3nc4ccccc4nc32)CC1 | 6.83 | 30
22 | CN(C)CCOC(=O)Cn1c2ccccc2c2nc3ccccc3nc21 | 5.46 | 0
23 | O=C(CCCN1C(=O)c2cccc3cccc(c23)C1=O)NCCN1CCOCC1 | 5.87 | 5
24 | CN(C)CCOCCn1c2ccccc2c2nc3ccccc3nc21 | 5.59 | 32
25 | CN1CCN(CCCn2c3ccccc3c3nc4ccccc4nc32)CC1 | 6.37 | 39

Row | SMILES | log Ka (Bos taurus) | Activity [1] [%]
26 | CC1CCCCN1CCCCn1c2ccccc2c2nc3ccccc3nc21 (stereo not given) | 5.6 | 26
27 | CCN(CC)CCCN1C(=O)c2cccc3cccc(c23)C1=O | 6.57 | –
28 | O=C(CCCCCN1C(=O)c2cccc3cccc(c23)C1=O)NCCN1CCOCC1 | 5.53 | –
29 | CCCCN(CC)CCn1c2ccccc2c2nc3ccccc3nc21 | 6.01 | 50
30 | CCN(CC)CCCNC(=O)c1cc2c(ccc3ccccc32)o1 | 6.12 | –
31 | OCCNCCCn1c2ccccc2c2nc3ccccc3nc21 | 6.4 | 37
32 | CC1CCN(CCn2c3ccccc3c3nc4ccccc4nc32)CC1 | 5.98 | 90
33 | CN(C)CCCNC(=O)c1cc2c(ccc3ccccc32)o1 | 5.48 | –
34 | O=C(CN1CCCCCC1)N/N=C1/C(=O)Nc2ccc3ccccc3c21 | 6.52 | 20
35 | CC1CCN(CCCn2c3ccccc3c3nc4ccccc4nc32)CC1 | 6.07 | 74
36 | CNCCCN1C(=O)c2cccc3cccc(c23)C1=O | 5.57 | –
37 | CCN(CC)CCN1C(=O)/C(=N/NC(=O)CCN2CCCCCC2)c2ccccc21 | 6.03 | –
38 | O=C(CN1CCCCCC1)N/N=C1\C(=O)Nc2ccccc21 | 5.49 | 80
39 | CN(C)CCCNC(=O)CCCCCN1C(=O)c2cccc3cccc(c23)C1=O | 6.1 | 100
40 | O=C1c2cccc3cccc(c23)C(=O)N1CCNCCO | 5.57 | –
41 | O=C(CN1CCCCC1)N/N=C1\C(=O)Nc2ccccc21 | 5.64 | 100
42 | c1ccc2c(c1)ccc1c2c2nc3ccccc3nc2n1CCN1CCCCC1 | 6.61 | 20
43 | O=C(CN1CCCCC1)N/N=C1/C(=O)Nc2ccc3ccccc3c21 | 6.21 | 10
44 | CCN(CC)CCOC(=O)Cn1c2ccccc2c2nc3ccccc3nc21 | 5.42 | 45
45 | CCN(CC)CCCOC(=O)Cn1c2ccccc2c2nc3ccccc3nc21 | 5.17 | 0
46 | CN(C)CCCCn1c2ccccc2c2nc3ccccc3nc21 | 5.61 | 30
47 | O=C(CN1CCOCC1)N/N=C1/C(=O)Nc2ccc3ccccc3c21 | 6.76 | 15
48 | O=C(CN1C(=O)c2cccc3cccc(c23)C1=O)NCCCN1CCOCC1 | 5.46 | –
49 | CC1CCCCN1CCn1c2ccccc2c2nc3ccccc3nc21 (stereo not given) | 5.19 | 90
50 | c1ccc2nc3c(nc2c1)c1ccccc1n3CCCN1CCOCC1 | 6.09 | 25

Row | SMILES | log Ka (Bos taurus) | Activity [1] [%]
51 | O=C(Cn1c2ccccc2c2nc3ccccc3nc21)OCCN1CCOCC1 | 5.18 | 45
52 | O=C(CCN1C(=O)c2cccc3cccc(c23)C1=O)NCCCN1CCOCC1 | 5.72 | 30
53 | CN(C)CCn1c2ccc3ccccc3c2c2nc3ccccc3nc21 | 6.94 | 21
54 | c1ccc2nc3c(nc2c1)c1ccccc1n3CCOCCN1CCOCC1 | 5.32 | 50
55 | CC1CCN(CC(=O)N/N=C2\C(=O)Nc3ccccc32)CC1 | 5.4 | 60
56 | CCN(CC)CCNC(=O)CCCCCN1C(=O)c2cccc3cccc(c23)C1=O | 5.49 | –
57 | CCCN(CCC)CCCCn1c2ccccc2c2nc3ccccc3nc21 | 5.49 | 13
58 | CCN(CC)CCCCCn1c2ccccc2c2nc3ccccc3nc21 | 5.61 | 12
59 | CC1CCN(CCCCn2c3ccccc3c3nc4ccccc4nc32)CC1 | 5.8 | 20
60 | CCN(CC)CC(=O)NN1C(=O)c2cccc3cccc(c23)C1=O | 5.6 | –
61 | CCN(CC)CCN1C(=O)/C(=N\NC(=O)CCN2CCN(C)CC2)c2ccccc21 | 6.15 | 100
62 | CC1CCN(CC(=O)N/N=C2/C(=O)Nc3ccc4ccccc4c32)CC1 | 7.11 | 40
63 | O=C(CCN1C(=O)c2cccc3cccc(c23)C1=O)NCCN1CCOCC1 | 5.78 | 5
64 | O=C1c2cccc3cccc(c23)C(=O)N1CCN1CCCCC1 | 5.29 | –
65 | c1ccc2nc3c(nc2c1)c1ccccc1n3CCN1CCOCC1 | 5.89 | 85
66 | c1ccc2c(c1)ccc1c2c2nc3ccccc3nc2n1CCN1CCOCC1 | 6.94 | 10
67 | CCN(CC)CCN1C(=O)c2cccc3cccc(c23)C1=O | 6.98 | –
68 | CN1CCN(CC(=O)N/N=C2\C(=O)Nc3ccc4ccccc4c32)CC1 | 5.99 | 70
69 | CN1CCN(CCCCCCn2c3ccccc3c3nc4ccccc4nc32)CC1 | 6.45 | –
70 | O=C(Cn1c2ccccc2c2nc3ccccc3nc21)NCCN1CCNCC1 | 5.72 | –
71 | c1ccc2nc3c(nc2c1)c1ccccc1n3CCN1CCCC1 | 6.05 | 85
72 | CCN(CC)CCn1c2ccc3ccccc3c2c2nc3ccccc3nc21 | 6.79 | 14
73 | CCN(CC)CCN1C(=O)/C(=N\NC(=O)CCN2CCOCC2)c2ccccc21 | 6.08 | –
74 | CC1CCN(CCC(=O)N/N=C2\C(=O)Nc3ccccc32)CC1 | 5.91 | 80
75 | CCN(CC)CCNC(=O)CCCN1C(=O)c2cccc3cccc(c23)C1=O | 6.13 | 20

Row | SMILES | log Ka (Bos taurus) | Activity [1] [%]
76 | CCCN(CCC)CCn1c2ccccc2c2nc3c(nc21)CCCC3 | – | 90
77 | O=C(CCCn1c2ccccc2c2nc3ccccc3nc21)NCCCNCCO | 5.09 | –
78 | c1ccc2c(c1)c1nc3c(nc1n2CCN1CCOCC1)CCCC3 | – | 66
79 | O=C(CN1C(=O)c2cccc3cccc(c23)C1=O)NCCN1CCOCC1 | 5.68 | –
80 | CN1CCN(CCCCCn2c3ccccc3c3nc4ccccc4nc32)CC1 | 6.23 | –
81 | O=C(CCCn1c2ccccc2c2nc3ccccc3nc21)NCCN1CCNCC1 | 4.97 | –
82 | CCN(CC)CCN1C(=O)/C(=N\NC(=O)CN2CCCCCC2)c2ccccc21 | 6.32 | –
83 | CCN(CC)CCN1C(=O)/C(=N\NC(=O)CN2CCCCC2)c2ccccc21 | 5.74 | –
84 | CCN(CC)CCCNC(=O)CN1C(=O)c2cccc3cccc(c23)C1=O | 5.31 | –
85 | CN(C)CCCN1C(=O)c2cccc3cccc(c23)C1=O | 7.07 | –
86 | CN(C)CCCNC(=O)CCCN1C(=O)c2cccc3cccc(c23)C1=O | 5.95 | –
87 | CC1CCN(CCn2c3ccccc3c3nc4c(nc32)CCCC4)CC1 | – | 95
88 | O=C(CN1CCOCC1)N/N=C1\C(=O)Nc2ccccc21 | 5.28 | –
89 | c1ccc2nc3c(nc2c1)c1ccccc1n3CCCCCCN1CCCCC1 | 5.95 | –
90 | O=C(CN1CCOCC1)NN1C(=O)c2cccc3cccc(c23)C1=O | 5.34 | –
91 | CCN(CC)CCNC(=O)c1cc2c(ccc3ccccc32)o1 | 5.77 | –
92 | CCN(CC)CCCNC(=O)CCCn1c2ccccc2c2nc3ccccc3nc21 | 4.77 | –
93 | O=C1c2cccc3cccc(c23)C(=O)N1NCCN1CCOCC1 | 5.38 | –
94 | O=C(CN1CCCCC1)NN1C(=O)c2cccc3cccc(c23)C1=O | 6.2 | –
95 | O=C(NCCCN1CCOCC1)c1cc2c(ccc3ccccc32)o1 | 5.64 | –
96 | c1ccc2c(c1)c1nc3c(nc1n2CCN1CCCCC1)CCCC3 | – | 65
97 | CN(C)CCCNC(=O)CN1C(=O)c2cccc3cccc(c23)C1=O | 5.63 | –
98 | O=C1c2cccc3cccc(c23)C(=O)N1CCCN1CCOCC1 | 6.93 | –
99 | CN1CCN(CCn2c3ccccc3c3nc4c(nc32)CCCC4)CC1 | – | 100
100 | CN(C)CCn1c2ccccc2c2nc3c(nc21)CCCC3 | – | 88
